Test results as given in patent US6455593B1, “Method of dynamic retardation of cell cycle kinetics to potentiate cell damage” (priority 1995, dated 2002).

What was measured:
Assay in all cases: Induction of apoptosis by DEET
Format in all cases: cell-based, human
Daudi B cells = test system: Daudi B cells
U937 cells = test system: U937 cells
Jurkat T cells = test system: Jurkat T cells

Measured: Concentration inducing apoptosis

CCN(CC)C(=O)c1cccc(C)c1 [DEET, N,N-Diethyl-m-toluamide]
above 0.5 mM: all assays above
